The values that follow are results of earlier work, collected in patent US7816298B2, “Hydroconversion processes employing multi-metallic catalysts and method for making thereof” (Chevron U. S. A. Inc., priority 2007, dated 2010).

As usually defined, the LD50 is the dose expected to kill half of the subjects tested.

The structures appear in SMILES notation.

The data set deals with rats. As to conditions: as single oral dose to rats; values quoted for chelating agents (ligand L).

As for `O=CC(=O)O` [glyoxylic], the median lethal dose (LD50) is 3000 mg/kg.
